melting point [°C] | Compound
158.6 | C[C@H]1CCCC[C@H]1Nc1c(C(N)=O)cnn2cccc12 [Compound 18g, 4-((1R,2S)-2-methylcyclohexylamino)pyrrolo[1,2-b]pyridazine-3-carboxamide]
108 | N#Cc1cnn2cccc2c1NC1CCCCCC1 [Compound 52h, 4-(cycloheptylamino)pyrrolo[1,2-b]pyridazine-3-carbonitrile]
102.9 | N#Cc1cnn2cccc2c1NC1CCCC1 [Compound 52b, 4-(cyclopentylamino)pyrrolo[1,2-b]pyridazine-3-carbonitrile]
106.9 | CN(C)C(CNc1c(C#N)cnn2cccc12)c1ccco1 (stereo not shown) [Compound 49h, 4-(2-(dimethylamino)-2-(furan-2-yl)ethylamino)pyrrolo[1,2-b]pyridazine-3-carbonitrile]
192.2 | NC(=O)c1cnn2cccc2c1NC1CCC(O)CC1 (stereo not shown) [Compound 51i, 4-(4-hydroxycyclohexylamino)pyrrolo[1,2-b]pyridazine-3-carboxamide]
156.9 | COc1ccccc1C(CNc1c(C#N)cnn2cccc12)N1CCOCC1 (stereo not shown) [Compound 50b, 4-(2-(2-methoxyphenyl)-2-morpholinoethylamino)pyrrolo[1,2-b]pyridazine-3-carbonitrile]
178.8 | CC(C)(CNc1c(C#N)cnn2cccc12)N1CCOCC1 [Compound 49e, 4-(2-methyl-2-morpholinopropylamino)pyrrolo[1,2-b]pyridazine-3-carbonitrile]
137.9 | Cc1nc(C(CC(C)C)Nc2c(C#N)cnn3cccc23)sc1C (stereo not shown) [Compound 49b, 4-(1-(4,5-Dimethylthiazol-2-yl)-3-methylbutylamino)pyrrolo[1,2-b]pyridazine-3-carbonitrile]
154.7 | C[C@@H]1CCCC[C@@H]1Nc1c(C(N)=O)cnn2cccc12 [Compound 18i, 4-((1S,2R)-2-methylcyclohexylamino)pyrrolo[1,2-b]pyridazine-3-carboxamide]
163.5 | N#Cc1cnn2cccc2c1Nc1ccccc1 [Compound 52e, 4-(phenylamino)pyrrolo[1,2-b]pyridazine-3-carbonitrile]
247.2 | NC(=O)c1cnn2cccc2c1Nc1ccccc1 [Compound 52f, 4-(phenylamino)pyrrolo[1,2-b]pyridazine-3-carboxamide]
279.2 | NC(=O)c1cnn2cccc2c1NC1CCCCCC1 [Compound 52i, 4-(cycloheptylamino)pyrrolo[1,2-b]pyridazine-3-carboxamide]
101.8 | N#Cc1cnn2cccc2c1NCC1CCCO1 (stereo not shown) [Compound 51k, 4-((tetrahydrofuran-2-yl)methylamino)pyrrolo[1,2-b]pyridazine-3-carbonitrile]
120 | NC(=O)c1cnn2cccc2c1NCC1CCCO1 (stereo not shown) [Compound 51m, 4-((tetrahydrofuran-2-yl)methylamino)pyrrolo[1,2-b]pyridazine-3-carboxamide]
207.7 | N#Cc1cnn2cccc2c1NC1(c2ccc(Cl)cc2Cl)CC1 [Compound 49k, 4-(1-(2,4-dichlorophenyl)cyclopropylamino)pyrrolo[1,2-b]pyridazine-3-carbonitrile]
195.1 | CC1CCCCC1Nc1c(C(=O)O)cnn2cccc12 (stereo not shown) [Compound 18e, 4-(2-methylcyclohexylamino)pyrrolo[1,2-b]pyridazine-3-carboxylic acid]

Source: patent publication US20120149691A1, “Pyrrolo [1,2-b] Pyridazine Derivatives as Janus Kinase Inhibitors” (BioCryst Pharmaceuticals, Inc., priority 2009, published 2012)
